Source: patent US20080004290A1, “Anti-Cancer Agents” (THE UNIVERSITY OF QUEENSLAND, priority 2003, published 2008)
Read-outs that look alike come from different tables or passages of the source.

Assays:
Assay type in all cases: cell-based, human
SkMel28 melanoma cells = assay: Cell survival assay (SRB); settings: Table 10, standard deviations in parentheses, read-out: Cell line IC50 (μM) SkMel
Experimental: (§1) Cell Lines and Culture Medium. All cell lines used in this study have been described previously (Parsons et al., 1986; Todaro et al., 1980; Glenn et al., 2004). All cell lines were cultured in 10% heat-inactivated foetal calf serum (CSL, Australia) in RPMI 1640 medium supplemented with 100 U/mL penicillin, 100 μg/mL streptomycin, and 3 mM HEPES at 5% CO2, 99% humidity at 37° C. Primary human fibroblasts were obtained from neonatal foreskins and cultured in the above medium. Routine mycoplasma tests were performed using Hoechst stain^i and were always negative.
(§2) Cell Survival Assay. Cells were plated into 96-well microtitre plates at 5×10^3 cells/well, and allowed to adhere overnight. Test compounds were added to culture medium at the indicated concentrations, and plates incubated in the above conditions for 24 hours. Following this incubation period, compounds and media were removed, and replaced with fresh culture medium. Cells were then grown for a further 72 hours before assay using sulforhodamine B (SRB; Sigma, St. Louis, Mo.) as previously described. Briefly, the culture medium was removed from the 96-well microtitre plates and the plates washed twice with phosphate buffered saline (PBS), before the cells were fixed with methylated spirits for 15 minutes. The plates were then rinsed with tap water and the fixed cells stained with 50 μL/well of SRB solution (0.4% sulforhodamine B (w/v) in 1% (v/v) acetic acid) over a period of 1 hour. The SRB solution was then removed from the wells and the plates rapidly washed two times with 1% (v/v) acetic acid. Protein bound dye was then solubilised with the addition of 100 μL of 10 mM unbuffered Tris, and incubated for 15 min at 25° C. Plates were then read at 564 nm on a VERSA max tunable microplate reader (Molecular Devices, Sunnyvale, Calif.).
(§3) For comparison their results are also shown for MM96L and NFF cell lines.

[1] = system: MCF-7 breast cancer cells; assay: Cell survival assay (SRB); settings: Table 10, standard deviations in parentheses, read-out: Cell line IC50 (μM) MCF7
Experimental: as §1, §2, §3

JAM ovarian cancer cells = assay: Cell survival assay (SRB); settings: Table 10, standard deviations in parentheses, read-out: Cell line IC50 (μM) JAM
Experimental: as §1, §2, §3

DO4 melanoma cells = assay: Cell survival assay (SRB); settings: Table 10, standard deviations in parentheses, read-out: Cell line IC50 (μM) DO4
Experimental: as §1, §2, §3

[2] = system: CI-80-13S ovarian cancer cells; assay: Cell survival assay (SRB); settings: Table 10, standard deviations in parentheses, read-out: Cell line IC50 (μM) C18013S
Experimental: as §1, §2, §3

[3] = system: DU145 prostate cancer cells; assay: Cell survival assay (SRB); settings: Table 10, standard deviations in parentheses, read-out: Cell line IC50 (μM) DU145
Experimental: as §1, §2, §3

MM96L melanoma cells = assay: Cell survival assay (clonogenic survival, SRB)
How it was run: (§4)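 Cells (5×10^3/well, RPMI 1640 with 10% FCS) treated 24 h with compound at 0.01-10 μg/mL, then washed and grown 72 h drug-free at 37 °C, 5% CO2. Survival read by SRB staining after methylated-spirit fixation, absorbance 564 nm.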

[4] = system: NFF, neonatal foreskin fibroblasts; assay: Cell survival assay (clonogenic survival, SRB), normal cells
How it was run: as §4

p21^WAF1/Cip1 (CDKN1A) = assay: Induction of p21 expression (semi-quantitative RT-PCR) in MM96L cells; settings: MM96L melanoma cells, 10 μg/ml, after 16 hrs treatment
Excerpt: Induction of p21 Expression. It has been postulated that histone acetylation is associated with activation of gene transcription. […] Possibly the best characterised gene to be induced following exposure to different HDAC inhibitors is that of the cyclin-dependent kinase inhibitor p21^WAF1/Cip1, which blocks cyclin-dependent kinase activity thereby causing cell-cycle arrest in G1. HDAC inhibitors are thought to act directly on the CDKN1A promoter rather than an upstream target. The HDAC inhibitor SAHA induces accumulation of acetylated histones in the chromatin associated with the CDKN1A gene, and this correlates with the observed increase in transcription. […]
Cell Treatment and Total RNA Isolation. […] RNA was analysed for sufficient quality by formamide agarose gel electrophoresis, and quantified by spectrophotometry.
p21 Expression. The semi-quantitative analysis of mRNA expression of p21^WAF1/Cip1 was carried out by RT-PCR. […] Products were analysed by agarose gel electrophoresis, and visualised on a UV light box. Product intensity was determined to increase linearly with number of cycles and amount of mRNA used, by densitometric analysis using ImageQuaNT 4.2 software (Molecular Dynamics, Sunnyvale, Calif.). Quantitation of p21^WAF1/Cip1 induction was also performed by densitometric analysis using ImageQuaNT 4.2 software following normalisation to GAPDH product intensity.

histone deacetylase = assay: Histone hyperacetylation (histone H4, Triton-acetic acid-urea gel) in MM96L cells; settings: (figure legends: 5 μg/mL, 8 hours)
Experimental: FIG. 1. Acetylation of Histones. […] Lane 1: untreated. Lane 2: compound of example 22 Lane 3: compound of example 40. Lane 4: TSA. Non-acetylated (A), mono-acetylated (B), di-acetylated (C), tri-acetylated (D) and tetra-acetylated (E) histone H4 are indicated.
FIG. 2. Acetylation of histones MM96L cells were treated with 5 μg/ml of various compound for 8 hr, before harvest and analysis of histone H4 acetylation by Triton-acetic acid-urea gel as previously described (Saito et al., 1991; Qiu et al., 1999). Lane 1: untreated: lane 2: Compound of example 73; lane 3: Compound of example 40; lane 4: TSA. Non-acetylated (A), mono-acetylated (B), di-acetylated (C), tri-acetylated (D) and tetra-acetylated (E) histone H4 are indicated.
Histone Hyperacetylation.

[5] = Homo sapiens, MM96L, 24 h, Table 6, 24 hours with compound, further growth, SRB, read-out: IC50 (μM) MM96L
[6] = Homo sapiens, MM96L, Table 10, standard deviations in parentheses, read-out: Cell line IC50 (μM) MM96L
[7] = Table 6, IC50 (NFF)/IC50 (MM96L)
[8] = Homo sapiens, Fibroblast, 24 h, Table 6, 24 hours with compound, further growth, SRB, read-out: IC50 (μM) NFF
[9] = Homo sapiens, Fibroblast, Table 10, standard deviations in parentheses, read-out: Cell line IC50 (μM) NFF
[10] = Table 5, 24 hours with compound, further growth, SRB, read-out: IC50 MM96L
[11] = Table 5, Selectivity Index = IC50 (NFF)/IC50 (MM96L)
[12] = Table 10, standard deviations in parentheses, read-out: Cell line IC50 (μM) MM96L
[13] = Table 5, 24 hours with compound, further growth, SRB, read-out: IC50 NFF
[14] = Table 10, standard deviations in parentheses, read-out: Cell line IC50 (μM) NFF

SMILES | IC50 (SkMel28 melanoma cells; Homo sapiens, SK-MEL-28) [µM] | IC50 ([1]; Homo sapiens, MCF7) [µM] | IC50 (JAM ovarian cancer cells; Homo sapiens) [µM] | IC50 (DO4 melanoma cells; Homo sapiens, DO4) [µM] | IC50 ([2]; Homo sapiens, C180-13S) [µM] | IC50 ([3]; Homo sapiens, DU-145) [µM] | IC50 (MM96L melanoma cells; [5]) [µM] | IC50 (MM96L melanoma cells; [6]) [µM] | Selectivity (MM96L melanoma cells; [7]) | IC50 [4, 8] [µM] | IC50 [4, 9] [µM] | IC50 (SkMel28 melanoma cells) [µM] | IC50 [1] [µM] | IC50 (JAM ovarian cancer cells) [µM] | IC50 (DO4 melanoma cells) [µM] | IC50 [2] [µM] | IC50 [3] [µM] | IC50 (MM96L melanoma cells; [10]) [µM] | IC50 (MM96L melanoma cells; [12]) [µM] | IC50 [4, 14] [µM] | also measured
CN(C)c1ccc(C(=O)N[C@@H](CSCCCC(=O)NO)C(=O)NC2CCCc3ccccc32)cc1 (stereo partly drawn) [Example 67] | 2.59 | 0.96 | 1.47 | 2.73 | 1.24 | 1.06 | 0.2 ± 0.1 | 0.2 | 11 | 2.2 ± 0.2 | 2.2 | – | – | – | – | – | – | – | – | – | IC50 (MM96L melanoma cells; Homo sapiens, MM96L, most preferred compounds, exemplary examples, read-out: potency of IC50 against the MM96 melanoma cells): ≤ 0.5 µM; Induction of mRNA for p21^WAF1/Cip1 (p21^WAF1/Cip1 (CDKN1A)): Induction of mRNA for p21^WAF1/Cip1 was seen
CN(C)c1ccc(C(=O)N[C@@H](CSCCCC(=O)NO)C(=O)Nc2ccc(-c3ccccc3)cc2)cc1 [Example 61] | 1.11 | 0.48 | 0.6 | 0.83 | 0.38 | 0.37 | 0.17 ± 0.05 | 0.17 | 1.9 | 0.32 ± 0.05 | 0.32 | – | – | – | – | – | – | – | – | – | –
O=C(CCCSC[C@H](NC(=O)c1cc2ccccc2[nH]1)C(=O)NCc1ccccc1)NO [Example 40] | – | – | – | – | – | – | – | – | – | – | – | 1.7 | 0.84 | 0.75 | 1.3 | 0.4 | 0.4 | 0.13 ± 0.09 | 0.13 | 0.8 | Selectivity (MM96L melanoma cells; [11]): 6.2; IC50 [4, 13]: 0.8 ± 0.2 µM; acetylation state of histone H4 (histone deacetylase): hyperacetylation of H4
CN(C)c1ccc(C(=O)N[C@@H](CSCCCC(=O)NO)C(=O)NCc2ccccc2)cc1 [Example 22] | – | – | – | – | – | – | – | – | – | – | – | 3 | 0.59 | 1.24 | 2 | 0.7 | 0.61 | 0.14 ± 0.09 | 0.14 | 0.35 | Selectivity (MM96L melanoma cells; [11]): 2.5; IC50 [4, 13]: 0.35 ± 0.07 µM; acetylation state of histone H4 (histone deacetylase): hyperacetylation of H4
CN(C)c1ccc(C(=O)N[C@@H](CSCCCC(=O)NO)C(=O)Nc2cccnc2)cc1 [Example 78] | 2.33 | 0.97 | 2.3 | 2.48 | 1.36 | 1.06 | 2.1 ± 0.1 | 0.51 | 5.6 | 11 ± 1 | 3.6 | – | – | – | – | – | – | – | – | – | –
CN(C)c1ccc(C(=O)N[C@@H](CSCCCC(=O)NO)C(=O)N[C@H]2c3ccccc3C[C@H]2O)cc1 [Example 70] | – | – | – | – | – | – | – | – | 9.1 | – | – | 6.14 | 3.3 | 7.22 | 7.12 | 2.5 | 3.76 | – | 0.9 | 8.2 | IC50 (MM96L melanoma cells; Table 6, 24 hours with compound, further growth, SRB, read-out: IC50 (μM) MM96L): 0.9 ± 0.05 µM; IC50 ([4]; Table 6, 24 hours with compound, further growth, SRB, read-out: IC50 (μM) NFF): 8.2 ± 0.8 µM
O=C(CCCSC[C@H](NC(=O)C(O)(c1ccccc1)c1ccccc1)C(=O)NCc1ccccc1)NO [Example 44] | – | – | – | – | – | – | – | – | – | – | – | 2.5 | 0.7 | 1.8 | 2.1 | 0.6 | 1.7 | 1.8 ± 0.2 | 0.2 | 0.8 | Selectivity (MM96L melanoma cells; [11]): 5.2; IC50 [4, 13]: 9.3 ± 0.7 µM
